The target of assay [1] is MAP3K1 (Homo sapiens, UniProt Q13233). Nature of the assay: Kinobeads competition binding, L-363 cell lysate. Conditions: 10 μM free compound, L-363 lysate. The arrangement: endogenous in cells; host or cells: L-363 cells (DSMZ ACC49), treated with MG132 before harvest. As for the experimental part:
(§1) To one aliquot of cell lysate 10 μM of the free compound (FIG. 3, CZC31326) was added and allowed to bind to proteins in the lysate. Then the affinity matrix with the immobilized compound was added to capture proteins that were not interacting with the previously added free compound. Beads were separated from the lysate and bead bound proteins were eluted in SDS sample buffer and subsequently separated by SDS-Polyacrylamide gel electrophoresis (FIG. 8). Suitable gel bands were cut out and subjected to in-gel proteolytic digestion with trypsin. The second lysate aliquot was processed identically, however no free compound was added (DMSO solvent control). Peptides originating from samples 1 and 2 were labeled with iTRAQ reagents (iTRAQ 114 and iTRAQ 117) and the combined samples were analyzed with a nano-flow liquid chromatography system coupled online to a tandem mass spectrometer (LC-MS/MS) experiment followed by iTRAQ reporter ion quantification in the MS/MS spectra as described in Example 2.
(§2) For this experiment the human plasma cell leukaemia line L-363 was used (German Collection of Microorganisms and Cell Cultures, DSMZ number ACC49, Braunschweig, Germany). Cells were treated for three hours with 20 μM of the proteasome inhibitor MG132 (Z-Leu-Leu-Leu-al, Sigma C2211) prior to cell harvesting.

The target in assay [2] is MAP3K3 (Homo sapiens, UniProt Q99759). The experiment in a line: Kinobeads competition binding, L-363 cell lysate. The arrangement: endogenous in cells; host or cells: L-363 cells (DSMZ ACC49), treated with MG132 before harvest. The note with it: 10 μM free compound, L-363 lysate. As for the experimental part:
as §1, §2

For assay [3], the target named is MAP3K4 (Homo sapiens, UniProt Q9Y6R4). Nature of the assay: Kinobeads competition binding, L-363 cell lysate. Further details: endogenous in cells; host or cells: L-363 cells (DSMZ ACC49), treated with MG132 before harvest. Conditions: 10 μM free compound, L-363 lysate. As to the method:
as §1, §2

In assay [4] the target is T1, ULK3 (Homo sapiens, UniProt Q6PHR2).
T1 sequence (Q6PHR2 1-472): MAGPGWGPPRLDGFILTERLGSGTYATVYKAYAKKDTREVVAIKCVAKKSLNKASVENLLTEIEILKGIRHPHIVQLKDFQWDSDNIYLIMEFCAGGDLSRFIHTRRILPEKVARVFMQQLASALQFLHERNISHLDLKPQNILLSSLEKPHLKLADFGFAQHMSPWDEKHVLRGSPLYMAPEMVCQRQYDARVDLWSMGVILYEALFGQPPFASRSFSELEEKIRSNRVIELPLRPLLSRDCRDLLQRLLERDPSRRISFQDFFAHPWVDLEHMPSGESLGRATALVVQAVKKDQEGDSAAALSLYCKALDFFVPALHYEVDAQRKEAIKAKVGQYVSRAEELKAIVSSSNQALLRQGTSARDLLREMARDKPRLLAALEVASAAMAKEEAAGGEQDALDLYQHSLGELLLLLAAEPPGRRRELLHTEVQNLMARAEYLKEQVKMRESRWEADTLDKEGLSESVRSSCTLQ
Nature of the assay: Kinobeads competition binding, HeLa Placenta lysate mix. The arrangement: kinases from mixed HeLa placenta lysates; endogenous in cells; host or cells: mixed lysate of HeLa cells and placenta tissue. The note with it: 10 μM free compound. As for the experimental part:
as §1, with “10).” for “8).”

The target in assay [5] is TGFbR1 (Homo sapiens, UniProt P36897). The description is as above. The note with it: 10 μM free compound. Further details: kinases from mixed HeLa placenta lysates; endogenous in cells; host or cells: mixed lysate of HeLa cells and placenta tissue. As to the method:
as §1, with “10).” for “8).”

In assay [6] the target is T2, TBK1 (Homo sapiens, UniProt Q9UHD2).
T2 sequence (Q9UHD2 1-729): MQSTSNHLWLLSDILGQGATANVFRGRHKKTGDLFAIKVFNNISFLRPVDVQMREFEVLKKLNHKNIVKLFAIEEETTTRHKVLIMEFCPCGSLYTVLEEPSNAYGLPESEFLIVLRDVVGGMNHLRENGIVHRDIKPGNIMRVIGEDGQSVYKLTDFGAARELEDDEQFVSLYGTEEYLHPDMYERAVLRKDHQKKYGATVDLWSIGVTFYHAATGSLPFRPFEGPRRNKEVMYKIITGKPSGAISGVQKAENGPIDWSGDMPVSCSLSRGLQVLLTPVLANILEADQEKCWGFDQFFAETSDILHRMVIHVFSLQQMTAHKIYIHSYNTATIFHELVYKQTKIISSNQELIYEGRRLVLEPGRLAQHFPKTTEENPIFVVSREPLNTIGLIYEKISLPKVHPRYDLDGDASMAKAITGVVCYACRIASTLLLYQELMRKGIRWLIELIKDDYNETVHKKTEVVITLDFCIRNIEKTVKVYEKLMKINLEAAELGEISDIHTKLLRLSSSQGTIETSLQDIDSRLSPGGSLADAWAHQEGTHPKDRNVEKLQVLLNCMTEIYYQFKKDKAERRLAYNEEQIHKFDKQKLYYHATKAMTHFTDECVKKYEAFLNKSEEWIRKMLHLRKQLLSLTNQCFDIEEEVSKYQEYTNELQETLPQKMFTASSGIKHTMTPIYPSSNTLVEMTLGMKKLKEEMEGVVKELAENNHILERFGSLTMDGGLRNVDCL
The experiment in a line: Kinobeads competition binding, L-363 cell lysate. The arrangement: capturing and identification of kinases from L-363 cell lysate; endogenous in cells; host or cells: L-363 (treated with MG132 before harvest). Conditions: 10 μM free compound, L-363 lysate. As to the method:
as §1, §2

The results in this text go back to patent US20120270237A9, “METHODS FOR THE IDENTIFICATION OF KINASE INTERACTING MOLECULES AND FOR THE PURIFICATION OF KINASE PROTEINS” (Cellzone AG, priority 2009, published 2012).

The structures appear in SMILES notation.

Sequence of MAP3K1 (Q13233 whole entry): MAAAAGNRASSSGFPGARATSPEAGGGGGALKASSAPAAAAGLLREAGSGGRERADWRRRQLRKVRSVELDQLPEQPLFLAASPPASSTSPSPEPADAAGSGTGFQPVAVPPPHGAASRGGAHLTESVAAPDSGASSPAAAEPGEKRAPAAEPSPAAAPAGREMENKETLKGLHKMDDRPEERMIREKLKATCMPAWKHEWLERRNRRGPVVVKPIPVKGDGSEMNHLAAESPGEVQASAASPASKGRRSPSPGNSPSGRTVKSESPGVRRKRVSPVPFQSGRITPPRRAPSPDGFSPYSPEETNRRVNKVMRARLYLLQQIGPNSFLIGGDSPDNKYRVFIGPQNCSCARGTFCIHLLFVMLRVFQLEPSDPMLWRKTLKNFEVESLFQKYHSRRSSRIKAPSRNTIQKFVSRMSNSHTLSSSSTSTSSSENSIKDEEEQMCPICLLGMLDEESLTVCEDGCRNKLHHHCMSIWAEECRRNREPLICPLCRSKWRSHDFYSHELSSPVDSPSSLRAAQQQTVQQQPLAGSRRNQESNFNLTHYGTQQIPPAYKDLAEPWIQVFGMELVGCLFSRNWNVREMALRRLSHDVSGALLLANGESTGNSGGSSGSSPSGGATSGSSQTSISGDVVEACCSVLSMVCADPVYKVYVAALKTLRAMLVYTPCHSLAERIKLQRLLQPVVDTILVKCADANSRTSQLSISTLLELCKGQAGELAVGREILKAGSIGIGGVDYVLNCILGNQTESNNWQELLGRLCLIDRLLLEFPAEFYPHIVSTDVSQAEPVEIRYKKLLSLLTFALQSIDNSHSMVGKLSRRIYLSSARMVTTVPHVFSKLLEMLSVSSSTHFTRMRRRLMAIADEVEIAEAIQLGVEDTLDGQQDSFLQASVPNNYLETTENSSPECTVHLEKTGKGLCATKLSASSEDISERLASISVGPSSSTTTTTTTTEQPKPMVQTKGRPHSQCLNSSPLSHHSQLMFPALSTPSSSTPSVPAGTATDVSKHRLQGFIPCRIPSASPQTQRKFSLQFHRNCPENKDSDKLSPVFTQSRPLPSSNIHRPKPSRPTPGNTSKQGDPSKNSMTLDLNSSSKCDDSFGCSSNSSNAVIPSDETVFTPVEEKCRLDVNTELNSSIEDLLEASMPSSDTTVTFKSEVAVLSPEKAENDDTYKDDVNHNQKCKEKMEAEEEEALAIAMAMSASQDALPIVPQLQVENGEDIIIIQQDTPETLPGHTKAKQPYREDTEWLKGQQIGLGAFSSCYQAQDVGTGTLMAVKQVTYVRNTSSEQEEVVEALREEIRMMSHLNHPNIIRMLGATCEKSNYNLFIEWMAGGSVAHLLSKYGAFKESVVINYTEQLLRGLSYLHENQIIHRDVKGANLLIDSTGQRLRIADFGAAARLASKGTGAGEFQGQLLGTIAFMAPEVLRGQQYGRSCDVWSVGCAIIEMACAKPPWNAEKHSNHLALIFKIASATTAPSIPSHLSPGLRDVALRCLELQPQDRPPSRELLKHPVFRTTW
Sequence of TGFbR1 (P36897 34-503): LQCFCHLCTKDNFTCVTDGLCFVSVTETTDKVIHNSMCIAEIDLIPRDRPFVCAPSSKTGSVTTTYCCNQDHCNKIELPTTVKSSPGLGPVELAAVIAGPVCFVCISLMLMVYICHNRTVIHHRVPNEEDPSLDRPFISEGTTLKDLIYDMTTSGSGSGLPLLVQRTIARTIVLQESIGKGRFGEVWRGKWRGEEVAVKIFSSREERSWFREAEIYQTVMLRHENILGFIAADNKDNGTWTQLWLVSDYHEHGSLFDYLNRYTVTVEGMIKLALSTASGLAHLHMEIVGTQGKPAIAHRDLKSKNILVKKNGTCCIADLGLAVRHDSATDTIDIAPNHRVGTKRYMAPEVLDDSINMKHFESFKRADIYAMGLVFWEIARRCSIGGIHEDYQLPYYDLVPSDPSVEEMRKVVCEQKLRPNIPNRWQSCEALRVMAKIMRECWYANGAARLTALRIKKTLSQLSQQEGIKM
Sequence of MAP3K3 (Q99759 whole entry): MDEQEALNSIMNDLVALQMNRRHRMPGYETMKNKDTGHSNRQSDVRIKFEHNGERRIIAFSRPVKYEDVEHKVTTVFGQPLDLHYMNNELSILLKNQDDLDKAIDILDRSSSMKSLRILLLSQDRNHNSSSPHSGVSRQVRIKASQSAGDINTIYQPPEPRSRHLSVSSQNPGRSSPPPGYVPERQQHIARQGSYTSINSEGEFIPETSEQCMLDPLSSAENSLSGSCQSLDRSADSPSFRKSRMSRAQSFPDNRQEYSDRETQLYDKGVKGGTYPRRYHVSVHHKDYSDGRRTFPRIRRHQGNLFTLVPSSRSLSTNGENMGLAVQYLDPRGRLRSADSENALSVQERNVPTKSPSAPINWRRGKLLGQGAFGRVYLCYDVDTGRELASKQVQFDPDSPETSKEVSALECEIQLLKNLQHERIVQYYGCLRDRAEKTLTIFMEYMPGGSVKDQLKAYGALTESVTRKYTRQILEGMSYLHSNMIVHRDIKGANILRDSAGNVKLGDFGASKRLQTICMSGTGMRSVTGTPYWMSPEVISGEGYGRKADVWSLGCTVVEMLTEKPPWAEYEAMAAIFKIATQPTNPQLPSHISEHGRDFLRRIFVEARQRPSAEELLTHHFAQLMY
Sequence of MAP3K4 (Q9Y6R4 whole entry): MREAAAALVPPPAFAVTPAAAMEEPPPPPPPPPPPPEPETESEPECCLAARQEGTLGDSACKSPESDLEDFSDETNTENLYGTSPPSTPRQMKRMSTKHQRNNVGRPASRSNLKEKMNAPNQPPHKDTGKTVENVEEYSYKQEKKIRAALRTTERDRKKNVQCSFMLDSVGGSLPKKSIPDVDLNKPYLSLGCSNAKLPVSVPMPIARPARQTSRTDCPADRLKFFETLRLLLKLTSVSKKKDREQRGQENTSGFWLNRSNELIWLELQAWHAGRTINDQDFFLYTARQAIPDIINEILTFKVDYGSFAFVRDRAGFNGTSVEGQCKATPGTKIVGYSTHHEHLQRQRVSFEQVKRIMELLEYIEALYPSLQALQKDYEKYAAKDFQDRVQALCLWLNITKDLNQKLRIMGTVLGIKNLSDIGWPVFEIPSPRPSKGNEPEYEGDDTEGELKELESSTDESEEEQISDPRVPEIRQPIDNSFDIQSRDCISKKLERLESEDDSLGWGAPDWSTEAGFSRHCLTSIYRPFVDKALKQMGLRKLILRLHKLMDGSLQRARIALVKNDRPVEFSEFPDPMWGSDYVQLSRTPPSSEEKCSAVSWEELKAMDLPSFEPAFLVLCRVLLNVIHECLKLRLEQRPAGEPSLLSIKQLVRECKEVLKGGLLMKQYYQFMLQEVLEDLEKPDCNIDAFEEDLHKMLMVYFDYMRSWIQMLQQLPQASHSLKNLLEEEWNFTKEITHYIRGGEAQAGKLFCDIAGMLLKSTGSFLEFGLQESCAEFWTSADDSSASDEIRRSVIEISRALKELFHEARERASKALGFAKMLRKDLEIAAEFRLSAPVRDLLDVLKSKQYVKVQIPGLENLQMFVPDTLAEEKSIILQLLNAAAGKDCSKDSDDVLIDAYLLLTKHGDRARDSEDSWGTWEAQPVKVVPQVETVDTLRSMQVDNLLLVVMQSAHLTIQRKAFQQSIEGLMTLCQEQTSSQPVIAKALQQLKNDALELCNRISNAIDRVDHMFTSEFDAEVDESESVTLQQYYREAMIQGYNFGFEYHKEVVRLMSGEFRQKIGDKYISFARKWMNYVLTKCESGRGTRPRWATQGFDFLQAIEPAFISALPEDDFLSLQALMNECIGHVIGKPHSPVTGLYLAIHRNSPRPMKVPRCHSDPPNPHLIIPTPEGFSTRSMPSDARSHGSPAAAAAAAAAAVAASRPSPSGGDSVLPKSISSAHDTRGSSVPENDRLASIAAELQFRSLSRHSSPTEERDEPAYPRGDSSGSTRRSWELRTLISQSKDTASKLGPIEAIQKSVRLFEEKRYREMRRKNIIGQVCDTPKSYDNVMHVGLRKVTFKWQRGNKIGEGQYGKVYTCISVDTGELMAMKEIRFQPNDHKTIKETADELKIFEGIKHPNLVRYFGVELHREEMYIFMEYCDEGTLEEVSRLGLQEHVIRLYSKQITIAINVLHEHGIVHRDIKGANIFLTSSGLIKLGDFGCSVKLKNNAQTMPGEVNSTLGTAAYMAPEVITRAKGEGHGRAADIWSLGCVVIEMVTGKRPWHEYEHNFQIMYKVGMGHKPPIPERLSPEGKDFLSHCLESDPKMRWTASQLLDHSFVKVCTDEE

With `CS(=O)(=O)Nc1ccccc1Nc1nc(Nc2cccc(OCCN)c2)ncc1Cl` [CZC31326, N-(2-(2-(3-(2-aminoethoxy)phenylamino)-5-chloropyrimidin-4-ylamino)phenyl)methanesulfonamide], the inhibition at 10 µM in assay [1] is 96.2%; in assay [2], 97.4%; in assay [3] it was 95.8%; in assay [5], 90.8%; in assay [6] it was 95.8%. Further, the Competition % in assay [4] is listed as 94.6%.

What is called inhibition is the share of the control response that was lost under treatment. Lower therefore signals a weak effect.
